This note sets out measurements from publication PMC10294662, “Small Molecule Attenuates Bacterial Virulence by Targeting Conserved Response Regulator” (mBio, 2023).

The target in the assay is VicR (Streptococcus mutans, UniProt I6L8Z5). As to the kind of experiment: bio-layer interferometry, biotinylated 2B5 on streptavidin sensors; pulldown of recombinant VicR and VicR-N. The class given is binding. On the set-up: gene covR; recombinant VicR; VicR-N (1 to 125 amino acid residues) also captured, VicR-C (126 to 235) not captured. (In general: Biolayer interferometry detects binding as a change in optical thickness at a sensor tip.)

SMILES strings stand for the structures.

VicR, sequence (I6L8Z5 entry or part of it): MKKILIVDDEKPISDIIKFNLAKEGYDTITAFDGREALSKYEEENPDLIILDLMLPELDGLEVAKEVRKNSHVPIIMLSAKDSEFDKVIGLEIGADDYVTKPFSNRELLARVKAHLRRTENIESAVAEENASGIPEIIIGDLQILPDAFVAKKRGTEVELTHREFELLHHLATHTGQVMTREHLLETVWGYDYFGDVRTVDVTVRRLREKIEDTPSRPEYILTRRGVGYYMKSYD

Regarding `CCCCCCCCCCCCCCCCN(CCCCCCc1cn(CCNC(=O)CCCC[C@@H]2SC[C@@H]3NC(=O)N[C@@H]32)nn1)C(=O)CCCc1c[nH]c(N)n1` [Bio2B5, biotinylated 2B5], the Kd (in general, the constant that tells how readily two partners part at equilibrium) is 38 ± 6.3 µM.
